The values that follow come from patent US20110262552A1, “Compositions Comprising Plant Extracts and Use Thereof for Treating Inflammation” (priority 2008, published 2011).

Data set [1] has as its system carrageenan-induced paw edema. Description: Carrageenin-induced acute inflammation (paw edema) in mice. In kind it is in vivo, CD-1 mice. The settings on record: oral; for % inhibition (hind paw edema): 1 h before intra-plantar carrageenan, edema 4 h after, compositions 1-4 250 mg/kg total, Aspirin 150, Phenylbutazone 30, Celebrex 10, Naproxen 30 mg/kg; for anti-inflammatory activity in carrageenan-induced paw edema assay: doses as in Table V. Here is the method: Male CD-1 (Crl.) derived mice weighing 22±1 g were obtained from BioLasco Taiwan (under Charles River Laboratories Technology Licensee). All animals were housed in a controlled temperature (22° C.-24° C.) and humidity (60%-80%) environment with 12 hours light/dark cycles for at least one week prior to experimental use. The animals had free access to standard lab chow for mice (MF-18 (Oriental Yeast Co., Ltd., Japan) and Reverse Osmosis water was granted. All aspects of the study including housing, experimentation and disposal of animals were performed in general accordance with the Guide for the Care and Use of Laboratory Animals (National Academy Press, Washington, D.C., 1996). Groups of 5 CD-1 male mice were fasted overnight prior to use. The test substances were administered orally one hour before intra-plantar injection of the right hind paw with carrageenan (50 μl of 1% suspension).
(Carrageenan injected into the paw causes an acute inflammation.)

Data set [2] deals with knee pain associated with arthrosis. The text has this:
A 10 year old Husky with a history of bilateral rupture of the cruciate ligament had bilateral knee surgery to correct this problem. The animal was also known to have zinc deficiency.
The dog was prescribed metacam for knee pain associated with arthrosis.

For data set [3], the system named is Complete Freund's Adjuvant-induced arthritis (hind paw volume). Description: Adjuvant-induced arthritis in rats. The note with it: reference drugs oral once daily for 5 days: Phenylbutazone 35, Celebrex 10, Dexamethasone 5 mg/kg. The data set is classed as in vivo, Lewis rats. Here is the method:
The study was conducted in male Lewis rats obtained from Charles River Japan, Inc. The animals were housed in a controlled temperature (21° C.-24° C.) and humidity (54%-68%) environment with 12 hour light/dark cycles for at least 1 week prior to use. Rats had Laboratory Rodent Diet MF-18 (Oriental Yeast Co., Ltd., Japan) and water (reverse osmosis purified water) ad libitum. The entire study and animal conditions and manipulations were conducted in accordance with the Guide for the Care and Use of Laboratory Animals (National Academy Press, Washington, D.C., 1996).
Eight groups of 5 rats weighing approximately 210±10 g were used. […] A dosing volume of 10 ml/kg was used. A well-ground suspension of killed Mycobacterium tuberculosis (0.3 mg in 0.1 ml of light mineral oil (CFA) was administered in a single dose into the subplantar region of the right hind paw 1 hour following the first dose of the test and reference compositions.
Right hind paw volume was measured 4 hours after single CFA injection (denoted day 1), and on day 5 (acute phase), while the left hind paw (without CFA) volume was measured on day 14 and 18 (delayed phase). Hind paw volume was measured by plethysmometer and water cell (25 mm diameter).

In the case of `CC(=O)Oc1ccccc1C(=O)O` [Aspirin], in data set [1], the “% inhibition (hind paw edema)” value was determined as 36% and the “anti-inflammatory activity in carrageenan-induced paw edema assay” value (shortened to “anti-inflammatory activity”) was “significant anti-inflammatory activity”.

With `Cc1cnc(NC(=O)C2=C(O)c3ccccc3S(=O)(=O)N2C)s1` [metacam], the “pain control / pain relief (clinical examination)” value in data set [2] (10 year old Husky, composition #8 1 gram per 10 kg body weight daily, a few weeks) is given as “only partially controlled”. Also, the intolerance result in data set [2] (dog, in vivo) was “signs of intolerance”.

As to `COc1ccc2cc([C@H](C)C(=O)O)ccc2c1` [Naproxen], in data set [1], the “% inhibition (hind paw edema)” value was 36% and the “anti-inflammatory activity” value was “significant anti-inflammatory activity”.

In the case of `CCCCC1C(=O)N(c2ccccc2)N(c2ccccc2)C1=O` [Phenylbutazone], in data set [3], the “% inhibition Day 14-0” value is given as 18, 18, 18%; the “% inhibition Day 18-0” value is recorded as 18, 18, 18%; the “% inhibition Day 18-14” value is given as 18, 18, 18%. Moreover, the “% inhibition (hind paw edema)” value in data set [1] is 23%.

For the compound `Cc1ccc(-c2cc(C(F)(F)F)nn2-c2ccc(S(N)(=O)=O)cc2)cc1` [Celebrex], in data set [3], the “% inhibition Day 14-0” value came out at 20%, the “% inhibition Day 18-0” value is 25% and the “% inhibition Day 18-14” value amounted to 30%. Moreover, in data set [1], the “% inhibition (hind paw edema)” value is on record as 23% and the “anti-inflammatory activity” value was “significant anti-inflammatory activity”.
